Test results published in US8975399B2, “Benzenesulfon amide-compound treatment of a pathological condition linked to an excessive effect of TNF” (priority 2010, dated 2015).

Biological target: T1, human TNF-alpha (Homo sapiens, UniProt P01375)
T1 construct: purchased R & D Diagnostics
Assay: Apoptosis induced by human TNF-alpha on murine L929 cells (MTT survival)
Assay type: cell-based
Conditions: compound 10 μM, human TNF-alpha 0.150 ng/ml, 24 hours, % survival based on control cells without TNF
Description: The compounds are dissolved in DMSO to be used in vitro or in vivo by oral route, and in Cremophor® for their use in vivo by intraperitoneal route.
The cells were cultured in DMEM medium with 10% fcetal calf serum added. 4×10^4 cells in 100 μl of culture medium were exposed to human TNF-alpha (R & D Diagnostics) at 0.150 ng/ml for 24 hours in 96-well plates, and the tested compound was added at a final concentration of 100 μM or 10 μM. A solution of MTT dye was added (100 μl at 0.5 mg/ml) to each well over two hours in order to measure cell survival. The absorbance was measured at 570 nm using a BMG Fluostar microplate reader. The inhibitory activity of the products was expressed as a calculated % survival based on the control cells without the addition of TNF.

T1 sequence (P01375 77-233 limits assumed): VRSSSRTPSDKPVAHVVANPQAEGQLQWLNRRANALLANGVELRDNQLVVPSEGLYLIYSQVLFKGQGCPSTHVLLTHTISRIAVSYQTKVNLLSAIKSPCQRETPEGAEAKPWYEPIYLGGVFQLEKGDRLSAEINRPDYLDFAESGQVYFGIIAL

Compound	% Inhibition 10 μM [%]
CCOc1ccc(S(=O)(=O)Nc2cc3c(C(C)=O)c(C)oc3c3ccccc23)cc1 [16 (1), N-(3-acetyl-2-methylnaphthho[1,2-b]furan-5-yl)-4-ethoxybenzene sulphonamide]	80.40
N-[2-(4-benzyl-1-piperazinyl)-2-oxoethyl]-N-(4-chlorophenyl)-4-methyl benzenesulphonamide [68 (16)]	56.2
Cc1c(Cl)cccc1N(CC(=O)N1CCN(Cc2ccccc2)CC1)S(=O)(=O)c1ccccc1 [73 (23), N-[2-(4-benzyl-1-piperazinyl)-2-oxoethyl]-N-(3-chloro-2-methylphenyl)benzenesulphonamide]	44.8
CC1CCN(C(=O)CN(Cc2ccc(Cl)c(Cl)c2)S(=O)(=O)c2ccc(Cl)cc2)CC1 [Compound 74, 4-chloro-N-(3,4-dichlorobenzyl)-N-[2-(4-methyl-1-piperidinyl)-2-oxoethyl]benzenesulphonamide]	45.6
N-(1′,2-dihydroxy-1.2′-binaphthhalen-4′-yl)-4-methoxybenzene-sulphonamide [Compound 21]	53.45
Cc1ccc(S(=O)(=O)N(CC(=O)N2CCN(Cc3ccccc3)CC2)c2cc(C)cc(C)c2)cc1 [Compound 76, N-[2-(4-benzyl-1-piperazinyl)-2-oxoethyl]-N-(3,5-dimethylphenyl)-4-methylbenzenesulphonamide]	35.5
Cc1ccc(CN(CC(=O)N2CCN(c3ccc(F)cc3)CC2)S(=O)(=O)c2ccccc2)cc1 [Compound 80, N-{2-[4-(4-fluorophenyl)-1-piperazinyl]-2-oxoethyl}-N-(4-methylbenzyl)benzenesulphonamide]	34.3
COc1ccc(OC)c(N(CC(=O)Nc2cccc(C(C)=O)c2)S(=O)(=O)c2ccc(C)cc2)c1 [Compound 34, N˜1˜-(3-acetylphenyl)-N-˜2˜-(2,5-dimethoxyphenyl)-N˜2˜-[(4-methylphenyl)sulphonyl]glycinamide]	42.26
COc1ccc(S(=O)(=O)N(CC(=O)N2CCN(c3ccc(F)cc3)CC2)Cc2ccccc2)cc1OC [Compound 84, N-benzyl-N-{2-[4-(4-fluorophenyl)-1-piperazinyl]-2-oxoethyl}-3,4-dimethoxybenzenesulphonamide]	33.6
Cc1ccc(S(=O)(=O)N(CC(=O)N2CCN(Cc3ccccc3)CC2)c2ccccc2C)cc1 [Compound 82, N-[2-(4-benzyl-1-piperazinyl)-2-oxoethyl]-4-methyl-N-(2-methylphenyl)benzenesulphonamide]	34.6
Cc1ccc(-c2nnc(NCc3ccccc3)c3ccccc23)cc1S(=O)(=O)NCC1CCCO1 (stereo not shown) [Compound 23, 5-[4-(benzylamino)-1-phthalazinyl]-2-methyl-N-(tetrahydro-2-furanylmethyl)benzenesulphonamide]	44.74
N-(1,2-dihydro-5-acenaphthhylenyl)-2.4,6-trimethylbenzenesulphonamide [Compound 26]	43.84
N-[2-(4-benzyl-1-piperazinyl)-2-oxoethyl]-N-(3-chlorophenyl)-4-methyl benzenesulphonamide [65 (13)]	61.4
COc1ccc(S(=O)(=O)N(CC(=O)N2CCc3ccccc3C2)c2cc(C)cc(C)c2)cc1OC [Compound 78, N-[2-(3,4-dihydro-2(1H)-isoquinolinyl)-2-oxoethyl]-N-(3,5-dimethylphenyl)-3,4-d imethoxybenzenesulphonamide]	38.4
COc1ccccc1N1CCN(C(=O)CN(Cc2ccccc2)S(=O)(=O)c2ccc(Cl)cc2)CC1 [66 (14), N-benzyl-4-chloro-N-{2-[4-(2-methoxyphenyl)-1-piperazinyl]-2-oxoethyl}benzenesulphonamide]	67.4
COc1ccc(S(=O)(=O)Nc2cc3c(C(C)=O)c(C)oc3cc2C)cc1 [Compound 1, N-(3-acetyl-2,6-dimethyl-1-benzofuran-5-yl)-4-methoxybenzene sulphonamide]	71.15

Compound	% Inhibition 10 μM [%]
COc1ccc(S(=O)(=O)N(CC(=O)N2CCN(c3ccccc3F)CC2)Cc2ccccc2)cc1 [Compound 77, N-benzyl-N-{2-[4-(2-fluorophenyl)-1-piperazinyl]-2-oxoethyl}-4-methoxybenzenesulphonamide]	32.8
N-{2-[4-(2-fluorophenyl)-1-piperazinyl]-2-oxoethyl}-N-(4-methylbenzyl) benzenesulphonamide [70 (19)]	54.0
COc1ccccc1N1CCN(C(=O)CN(Cc2ccccc2)S(=O)(=O)c2ccc(F)cc2)CC1 [Compound 75, N-benzyl-4-fluoro-N-{2-[4-(2-methoxyphenyl)-1-piperazinyl]-2-oxoethyl}benzenesulphonamide]	44.7
Cc1ccc(S(=O)(=O)N(CC(=O)N2CCN(Cc3ccccc3)CC2)c2ccc(C)c(C)c2)cc1 [72 (21), N-[2-(4-benzyl-1-piperazinyl)-2-oxoethyl]-N-(3,4-dimethylphenyl)-4-methylbenzenesulphonamide]	53.4
3-(4-fluorophenyl)-4-oxo-4H-chromen-7-ylN-[(4-methylphenyl)sulphonyl]-beta-alaninate [Compound 24]	50.26
Cc1ccc(S(=O)(=O)N(CC(=O)N2CCC(Cc3ccccc3)CC2)c2ccc(F)cc2)cc1 [Compound 81, N-[2-(4-benzyl-1-piperidinyl)-2-oxoethyl]-N-(4-fluorophenyl)-4-methylbenzenesulphonamide]	34.8
N-{2-[4-(diphenylmethyl)-1-piperazinyl]-2-oxoethyl}-N,4-dimethyl benzenesulphonamide [Compound 85]	32.1
COc1ccc(S(=O)(=O)N(CC(=O)N2CCN(c3ccccc3)CC2)c2ccc(C)cc2)cc1OC [Compound 79, 3,4-dimethoxy-N-(4-methylphenyl)-N-[2-oxo-2-(4-phenyl-1-piperazinyl)ethyl]benzenesulphonamide]	36.8
N-benzyl-4-methyl-N-[2-oxo-2-(4-phenyl-1-piperazinyl)pethyl]benzenesulphonamide [69 (18)]	61.3
COc1ccc(S(=O)(=O)N(CC(=O)N2CCN(c3ccccc3OC)CC2)Cc2ccccc2)cc1C [32 (3), N-benzyl-4-methoxy-N-{2-[4-(2-methoxyphenyl)-1-piperazinyl]-2-oxoethyl}-3-methylbenzenesulphonamide]	69.73
COC(=O)c1c(C)oc2ccc(NS(=O)(=O)c3ccc(C)cc3)cc12 [Compound 3, methyl 2-methyl-5-{[(4-methylphenyl)sulphonyl]amino}-1-benzofuran-3-carboxylate]	48.09
COC(=O)c1c(C)oc2ccc(NS(=O)(=O)c3ccc(OC)cc3)cc12 [Compound 2, methyl 5-{[(4-methoxyphenyl)sulphonyl]amino}-2-methyl-1-benzofuran-3-carboxylate]	57.51
COc1ccccc1N1CCN(C(=O)CN(Cc2ccccc2)S(=O)(=O)c2ccc(Br)cc2)CC1 [67 (15), N-benzyl-4-bromo-N-{2-[4-(2-methoxyphenyl)-1-piperazinyl]-2-oxoethyl}benzenesulphonamide]	61.8
COc1ccc(NC(=O)CN(Cc2cccc(Cl)c2)S(=O)(=O)c2ccc(C)cc2)c(OC)c1 [Compound 33, N˜2˜-(3-chlorobenzyl)-N˜1˜-(2,4-dimethoxyphenyl)-N˜2˜-[(4-methylphenyl)sulphonyl]glycinamide]	52.4
COc1ccccc1N1CCN(C(=O)CN(Cc2ccc(F)cc2)S(=O)(=O)c2ccc(Cl)cc2)CC1 [Compound 71, 4-chloro-N-(4-fluorobenzyl)-N-{2-[4-(2-methoxyphenyl)-1-piperazinyl]-2-oxoethyl}benzenesulphonamide]	53.6
